Results from patent publication US4077952A, “Somatostatin analogs” (American Home Products Corporation, priority 1977, dated 1978).
Positions of bridges follow the written chain, without caps; N, C: chain ends. Non-standard residues stand in square brackets, D forms with d. Residues, ends and D or L forms follow the SMILES beside them.

Legend:
Assay type in all cases: in vivo
Conditions in all cases: albino male rats, blood 15 min after compound, 5 min after arginine
growth hormone (GH) = assay: Suppression of growth hormone in arginine-stimulated, nembutal-anesthetized rats
Protocol: (§1) Albino male rats are arranged in two groups (nine rats/group) and injected i.p. with nembutal at 50 mg/kg. Fifteen minutes after the nembutal injection they are injected s.c. according to group with test compound, or physiological saline. Ten minutes later 0.5 ml. of arginine (300 mg/ml. pH 7.2) is injected into the heart. The rats are decapitated five minutes after receiving the arginine, and the blood is collected into Trasylol-EDTA. Appropriate aliquots are then assayed for growth hormone (GH), glucagon (GLUN), and insulin (INS). […] Comparisons between control and experimental values are statistically evaluated by the analysis of variants method and statistical significance (p) at 0.05 or lower is used as the index of activity.

insulin (INS) = assay: Suppression of insulin in arginine-stimulated, nembutal-anesthetized rats
Protocol: as §1

glucagon (GLUN) = assay: Suppression of glucagon in arginine-stimulated, nembutal-anesthetized rats
Protocol: as §1

Compound `C[C@@H](O)[C@@H]1NC(=O)[C@H](Cc2ccccc2)NC(=O)[C@H]([C@@H](C)O)NC(=O)[C@H](CCCCN)NC(=O)[C@@H](Cc2c[nH]c3ccccc23)NC(=O)[C@H](Cc2ccccc2)NC(=O)[C@H](Cc2ccccc2)NC(=O)[C@H](Cc2c[nH]cn2)NC(=O)[C@H](CCCNC(=N)N)NC(=O)[C@@H](N)CSSC[C@@H](C(=O)O)NC(=O)[C@H](CO)NC1=O` [Example 2, L-Cysteinyl-L-Arginyl-L-Histidyl-L-Phenylalanyl-L-Phenylalanyl-D-Tryptophyl-L-Lysyl-L-Threonyl-L-Phenylalanyl-L-Threonyl-L-Seryl-L-Cysteine Cyclic (1-12) Disulfide] (H-CRHFF[dW]KTFTSC-OH; disulfide 1-12) has a GH plasma level (growth hormone (GH); Experiment 1, 100 μg/kg s.c., saline control 257 ± 49) of 61 ng/mL, a GH plasma level (growth hormone (GH); Experiment 2, 10 μg/kg s.c., saline control 131 ± 43) of 71 ± 21 ng/mL and an INS plasma level (insulin (INS); Experiment 1, 100 μg/kg s.c., saline control 177 ± 19) of 52 ± 16 μU/ml. For the same compound, the INS plasma level (insulin (INS); Experiment 2, 10 μg/kg s.c., saline control 262 ± 26) was 238 ± 72 μU/ml, the GLUN plasma level (glucagon (GLUN); Experiment 1, 100 μg/kg s.c., saline control 61 ± 9) was 0 ± 0 pg/mL and the GLUN plasma level (glucagon (GLUN); Experiment 2, 10 μg/kg s.c., saline control 42 ± 6) was 4 ± 3 pg/mL.
